Test results published in paper PMC2582240, “Enhanced A3 adenosine receptor selectivity of multivalent nucleoside-dendrimer conjugates” (Journal of Nanobiotechnology, 2008).

What was measured:
[1] = target: T1, A1 AR (Homo sapiens, UniProt P30542); experiment: Radioligand binding at A1 AR ([3H]CCPA, CHO cell membranes); details: for Difference in affinity between the human A1 and A3 ARs / Binding at the A1 AR, in words: radioligand binding; for A1 binding, class symbol: inhibition of radioligand binding at 10 μM
T1 sequence (P30542 1-326): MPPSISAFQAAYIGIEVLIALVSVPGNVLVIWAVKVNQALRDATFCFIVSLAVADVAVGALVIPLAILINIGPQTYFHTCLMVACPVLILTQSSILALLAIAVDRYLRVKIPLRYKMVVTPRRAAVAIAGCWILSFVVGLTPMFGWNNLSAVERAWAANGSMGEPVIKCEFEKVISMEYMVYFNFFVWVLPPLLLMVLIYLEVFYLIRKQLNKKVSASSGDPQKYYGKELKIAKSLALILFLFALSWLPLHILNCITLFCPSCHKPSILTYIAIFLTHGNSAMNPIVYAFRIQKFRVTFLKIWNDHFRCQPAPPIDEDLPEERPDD
Experimental: (§1) CHO (Chinese hamster ovary) cells stably expressing the recombinant human ARs were cultured in Dulbecco's modified Eagle medium (DMEM) and F12 (1:1) supplemented with 10% fetal bovine serum, 100 units/mL penicillin, 100 μg/mL streptomycin, and 2 μmol/mL glutamine. After harvesting, cells were homogenized and suspended. Cells were then centrifuged at 500 g for 10 min, and the pellet was resuspended in 50 mM Tris-HCl buffer (pH 7.5) containing 10 mM MgCl2. The suspension was homogenized and was then recentrifuged at 20 000 g for 20 min at 4°C. The resultant pellets were resuspended in Tris buffer, incubated with adenosine deaminase for 30 min at 37°C, and the suspension was stored at -80°C until the binding experiments. The protein concentration was measured using the BCA Protein Assay Kit from Pierce.
(§2) Radioligand binding assays were performed for A1 and A2A ARs, following the procedure described previously. Each tube in the binding assay contained 100 μL of membrane suspension (20 μg of protein), 50 μL of agonist radioligand, and 50 μL of increasing concentrations of the test ligands in Tris-HCl buffer (50 mM, pH 7.5) containing 10 mM MgCl2. The concentration of the dendrimer-ligand complexes are measured by the concentration of the dendrimer, not the ligand. Therefore, all Ki values are measured as Ki app values. Nonspecific binding was determined using a final concentration of 10 μM 5'-N-ethylcarboxamidoadenosine diluted with the buffer. The mixtures were incubated at 25°C for 60 min. Binding reactions were terminated by filtration through Whatman GF/B filters under a reduced pressure using a MT-24 cell harvester (Brandell, Gaithersburg, MD). Filters were washed three times with 5 mL of 50 mM ice-cold Tris-HCl buffer (pH 7.5). The radioactive agonists [^3H]2-chloro-N^6-cyclopentyladenosine and [^3H]2-(4-(2-carboxyethyl)phenylethylamino)-5'-N-ethylcarboxamido-adenosine were used for the A1 and A2A assays, respectively. All of the filters were washed 3 times with Tris-HCl, pH 7.5. Filters for A1 and A2A AR binding were placed in scintillation vials containing 5 mL of Hydrofluor scintillation buffer and counted using a Perkin Elmer Liquid Scintillation Analyzer. Filters for A3 AR binding were counted using a Packard Cobra II γ-counter. The Ki values were determined using GraphPad Prism for all assays.

[2] = target: T2, A2A AR (Homo sapiens, UniProt P29274); experiment: Radioligand binding at A2A AR ([3H]CGS21680, HEK cells)
T2 construct: expressed in transfected cells; host or cells: CHO
Experimental: as §1
as §2, with “The radioactive agonists [^3H]2-chloro-N^6-cyclopentyladenosine and [^3H]2-(4-(2-carboxyethyl)phenylethylamino)-5'-N-ethylcarboxamido-adenosine were used for the A1 and A2A assays, respectively.” left out

[3] = target: T3, A3 AR (Homo sapiens, UniProt P0DMS8); experiment: Radioligand binding at A3 AR ([125I]AB-MECA, CHO cell membranes)
T3 construct: expressed in transfected cells; host or cells: CHO cells, stably transfected
T3 sequence (P0DMS8 1-318): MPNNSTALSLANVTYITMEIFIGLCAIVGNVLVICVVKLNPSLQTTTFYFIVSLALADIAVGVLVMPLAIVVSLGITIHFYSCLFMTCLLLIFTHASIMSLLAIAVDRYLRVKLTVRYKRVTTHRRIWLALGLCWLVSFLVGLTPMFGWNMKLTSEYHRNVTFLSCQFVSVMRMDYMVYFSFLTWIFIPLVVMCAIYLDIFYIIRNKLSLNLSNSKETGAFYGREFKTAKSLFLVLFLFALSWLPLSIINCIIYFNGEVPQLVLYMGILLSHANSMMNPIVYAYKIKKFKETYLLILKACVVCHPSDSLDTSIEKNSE
Experimental: as §1
as §2, with “The radioactive agonists [^3H]2-chloro-N^6-cyclopentyladenosine and [^3H]2-(4-(2-carboxyethyl)phenylethylamino)-5'-N-ethylcarboxamido-adenosine were used for the A1 and A2A assays, respectively.” left out

[4] = target: T1, A1 AR; experiment: [35S]GTPγS binding assay in CHO A1 membranes; format: biochemical; details: for EC50: mean ± SEM, n = 3
Experimental: as §1
[^35S]GTPγS binding was measured in 200 μl of buffer containing 50 mM Tris-HCl (pH 7.4), 1 mM EDTA, 1 mM MgCl2, 10 μM GDP, 1 mM dithiothreitol, 100 mM NaCl, 3 units/ml adenosine deaminase, 0.2 nM [^35S]GTPγS, 0.004% CHAPS, 0.5% bovine serum albumin and increasing concentrations of the ligands. Samples were started by addition of the membrane suspension (5–10 μg protein/tube) to the test tubes and incubated at 25°C for 30 min. The assay was terminated by rapid filtration through Whatman GF/B filters, pre-soaked in 50 mM Tris-HCl (pH 7.4) containing 5 mM MgCl2 and 0.02% CHAPS. Non-specific binding of [^35S]GTPγS was measured in the presence of 10 μM unlabelled GTPγS. After the filters were washed, they were placed in scintillation vials containing 5 mL of Hydrofluor scintillation buffer and counted using a Perkin Elmer Liquid Scintillation Analyzer. The EC50 values were determined using GraphPad Prism for all assays.

[5] = target: T1, A1 AR; experiment: cAMP assay (inhibition of forskolin-stimulated adenylyl cyclase) in CHO cells expressing A1 AR; format: cell-based; details: for EC50: cAMP inhibition, mean ± SEM, n = 3; for A1 (adenylyl cyclase), class word: at 10 μM, relative to total inhibition by ADAC
Experimental: (§3) CHO cells expressing either the A1 or A3 AR were seeded in 24 well plates and incubated at 37°C overnight. The following day the medium was removed and replaced with DMEM containing 50 mM HEPES, 10 μM rolipram, 3 U/ml adenosine deaminase and increasing concentrations of the compounds. After a 30 min incubation at 37°C, 10 μM of forskolin was added to stimulate cAMP levels, and the cells were incubated at 37°C for an additional 15 min. The medium was removed, and the cells were lysed with 200 μl of 0.1 M HCl. 100 μl of the HCl solution was used in the Sigma Direct cAMP Enzyme Immunoassay following the instructions provided with the kit.

[6] = target: T3, A3 AR; experiment: cAMP assay (inhibition of forskolin-stimulated adenylyl cyclase) in CHO cells expressing A3 AR; format: cell-based; details: for EC50: cAMP inhibition, mean ± SEM, n = 3; for A3 (adenylyl cyclase), class word: relative to total inhibition by ADAC
Experimental: as §3

[7] = system: ten-min bilateral cerebrovascular occlusion; details: cited from earlier work
[8] = system: CHO A3 cells; experiment: Light and fluorescent microscopy of CHO A3 cells; format: cell-based, Chinese hamster; details: 10 μM, 1 h, one wash with PBS, CHO cells stably expressing the A3 AR
Experimental: (§4) After one wash with PBS, the cells were imaged at 100× magnification on a Zeiss AxioVision D1 Imager, and both light and fluorescent pictures were obtained.
(§5) CHO or CHO A3 cells were seeded on a cover disk in a 6 well dish (250,000 cells per well). After the cells were incubated for 24 hrs at 37°C, the medium was removed and replaced with DMEM containing 10 μM of the 15 or 17. The cells were incubated for 1 h at 37°C and washed one time with PBS. The images were taken with at 100× manification using a Zeiss AxioVision D1 Imager equipped with AxioVision 4.5 software.

[9] = system: CHO cells; experiment: Light and fluorescent microscopy of CHO cells not expressing the A3 AR; format: cell-based, Chinese hamster; details: 10 μM, 1 h, one wash with PBS
Experimental: as §4, §5

[10] = inhibition of radioligand binding at 10 μM

T2 sequence (P29274 whole entry): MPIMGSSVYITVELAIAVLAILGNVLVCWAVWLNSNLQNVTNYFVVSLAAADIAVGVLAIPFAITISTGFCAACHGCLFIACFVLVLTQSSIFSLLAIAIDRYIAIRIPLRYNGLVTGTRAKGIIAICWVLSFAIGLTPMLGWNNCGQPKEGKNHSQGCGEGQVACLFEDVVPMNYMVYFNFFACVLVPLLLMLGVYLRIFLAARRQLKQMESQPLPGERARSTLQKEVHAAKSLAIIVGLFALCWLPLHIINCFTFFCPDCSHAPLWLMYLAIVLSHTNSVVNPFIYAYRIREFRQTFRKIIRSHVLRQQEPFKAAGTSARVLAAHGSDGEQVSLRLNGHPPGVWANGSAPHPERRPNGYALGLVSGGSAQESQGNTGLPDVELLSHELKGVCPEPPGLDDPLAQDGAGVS

| Ki [1] | Difference in affinity between the human A1 and A3 ARs [1] | Ki [2] | Ki [3] | EC50 [4] | EC50 [5] | EC50 [6] | Binding at the A1 AR, in words [1] | A1 (adenylyl cyclase), class word [5] | A3 (adenylyl cyclase), class word ([6]; at 10 μM) | Compound | A1 binding, class symbol [1] | Inhibition of cAMP production at the A1 AR, in words [5] | other results |
| --- | --- | --- | --- | --- | --- | --- | --- | --- | --- | --- | --- | --- | --- |
|  |  |  |  |  |  |  | no binding | inactive^c | inactive^c | G2.5 PAMAM – AF488 [Compound 15] | NB^b (NB, No binding. Inhibition of radioligand binding < 10% at 10 μM) | no binding or activity | A2A binding, class symbol [2, 10]: NB^b (NB, No binding. Inhibition of radioligand binding < 10% at 10 μM); A3 binding, class symbol [3, 10]: NB^b (NB, No binding. Inhibition of radioligand binding < 10% at 10 μM); Fluorescent binding to cells [8]: Neither type of CHO cells were bound; Fluorescent binding to cells [9]: Neither type of CHO cells were bound |
|  |  |  |  |  |  |  | no binding | inactive^c | inactive^c | G3 PAMAM – 23 Ac – AF488 [Compound 11] | NB^b (NB, No binding. Inhibition of radioligand binding < 10% at 10 μM) | unable to significantly inhibit cAMP production | Inhibition of cAMP production at the A3 AR, in words ([6]; at 10 μM): unable to significantly inhibit cAMP production |
| 43 ± 5 nM | < 5 fold | 300 ± 20 nM | 9.5 ± 2 nM | 63 ± 14 nM | 89 ± 17 nM | 36 ± 13 nM |  |  |  | NCCNCCNC(=O)Cc1ccc(NC(=O)Cc2ccc(Nc3ncnc4c3ncn4[C@@H]3O[C@H](CO)[C@@H](O)[C@H]3O)cc2)cc1 [Compound 7, N-(2-(2-Aminoethylamino)ethyl)-2-(4-(2-(4-(9-((2R,3R,4S,5R)-3,4-dihydroxy-5-(hydroxymethyl)-tetrahydrofuran-2-yl)-9H-purin-6-ylamino)-phenyl)acetamido)phenyl)acetamide] |  |  | Fold more potent than 4 in activation of GTPγS binding via the A1 AR [4]: 20 fold; Fold more potent than either ADAC or 4 in adenylyl cyclase assay ([5]; A1 AR): 3 – 7 fold; Fold more potent than either ADAC or 4 in adenylyl cyclase assay ([6]; A3 AR): 3 – 7 fold |

Further lines, the compound ahead of its results:

| Compound | Ki [1] | Difference in affinity between the human A1 and A3 ARs [1] | Ki [2] | Ki [3] | EC50 [4] | EC50 [5] | EC50 [6] | Binding at the A1 AR, in words [1] | A1 (adenylyl cyclase), class word [5] | A3 (adenylyl cyclase), class word ([6]; at 10 μM) | A1 binding, class symbol [1] | Inhibition of cAMP production at the A1 AR, in words [5] | other results |
| --- | --- | --- | --- | --- | --- | --- | --- | --- | --- | --- | --- | --- | --- |
| NCCNC(=O)Cc1ccc(NC(=O)Cc2ccc(Nc3ncnc4c3ncn4[C@@H]3O[C@H](CO)[C@@H](O)[C@H]3O)cc2)cc1 [Compound 1, N^6-[4-[[[4-[[[(2-aminoethyl)amino]carbonyl]methyl]anilino]-carbonyl]methyl]phenyl]adenosine, reference compound] | 10.4 ± 3.8 nM | < 5 fold | 370 ± 100 nM | 12.2 ± 4.1 nM | 94 ± 26 nM | 400 ± 80 nM | 100 ± 50 nM |  |  |  |  |  | Protection against neuronal damage and mortality ([7]; acute or chronic administration prior to occlusion): protects against neuronal damage and mortality; Neuronal protection post-ischemia ([7]; given up to twelve hours post-ischemia): provides neuronal protection |
| O=C(O)CCc1ccc(NC(=S)NCCNC(=O)Cc2ccc(NC(=O)Cc3ccc(Nc4ncnc5c4ncn5[C@@H]4O[C@H](CO)[C@@H](O)[C@H]4O)cc3)cc2)cc1 [Compound 4, 3-(4-(3-(2-(2-(4-(2-(4-(9-((2R,3R,4S,5R)-3,4-Dihydroxy-5-(hydroxymethyl)tetrahydrofuran-2-yl)-9H-purin-6-ylamino)phenyl)acetamido)-phenyl)acetamido)ethyl)thioureido)phenyl)pro-panoic acid] | 30 ± 9 nM | < 5 fold | 800 ± 360 nM | 74 ± 20 nM | 1300 ± 400 nM | 350 ± 20 nM | 140 ± 70 nM |  |  |  |  |  |  |
